Reference: ChEMBL document CHEMBL4145535, “Recent updates for designing CCR5 antagonists as anti-retroviral agents” (Eur J Med Chem, 2018)

Columns and labels:
[1] = biological target: T1, C-C chemokine receptor type 5 (Homo sapiens, UniProt P51681); test: Antagonist activity at CCR5 (unknown origin) by HTS assay; type: functional
Target sequence in this assay (P51681 whole entry): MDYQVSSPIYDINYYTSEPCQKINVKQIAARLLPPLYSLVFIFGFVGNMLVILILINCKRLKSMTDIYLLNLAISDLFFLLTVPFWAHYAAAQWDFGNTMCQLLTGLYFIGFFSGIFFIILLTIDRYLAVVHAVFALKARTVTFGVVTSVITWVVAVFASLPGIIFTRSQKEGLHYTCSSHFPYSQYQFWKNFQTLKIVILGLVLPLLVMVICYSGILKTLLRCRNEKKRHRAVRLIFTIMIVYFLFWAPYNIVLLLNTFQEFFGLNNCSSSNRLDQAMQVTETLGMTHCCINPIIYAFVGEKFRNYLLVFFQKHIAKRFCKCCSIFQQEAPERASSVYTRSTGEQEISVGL

[2] = biological target: T1, C-C chemokine receptor type 5; test: Displacement of [125I]-RANTES from CCR5 in mouse NIH/3T3 cells after 1 hr
Target sequence in this assay (P51681 whole entry, looked up): as the sequence (P51681 whole entry) above

IC50 [2]	SMILES	IC50 [1]
–	C1NCC2CNCC12 (configuration not stated)	7 nM
2.9 nM	C=CCN(C(=O)OCc1ccc([N+](=O)[O-])cc1)C1CCN(C[C@H]2CN(C(=O)C3CCCC3)C[C@]2(O)c2ccccc2)CC1 [NIFEVIROC]	–
